# Measurements as given in article PMC5450158 (European journal of pharmaceutical sciences : official …, 2017).
# Target: T1, MRP3 (ABCC3) (Homo sapiens, UniProt O15438)
# Assay: inhibition of ATP-dependent [3H]-E217G uptake, membrane vesicles
# Conditions: 10 μM E217G, 5 min, 37 °C, 100 μM compound, value is remaining uptake
# T1 sequence (O15438 whole entry): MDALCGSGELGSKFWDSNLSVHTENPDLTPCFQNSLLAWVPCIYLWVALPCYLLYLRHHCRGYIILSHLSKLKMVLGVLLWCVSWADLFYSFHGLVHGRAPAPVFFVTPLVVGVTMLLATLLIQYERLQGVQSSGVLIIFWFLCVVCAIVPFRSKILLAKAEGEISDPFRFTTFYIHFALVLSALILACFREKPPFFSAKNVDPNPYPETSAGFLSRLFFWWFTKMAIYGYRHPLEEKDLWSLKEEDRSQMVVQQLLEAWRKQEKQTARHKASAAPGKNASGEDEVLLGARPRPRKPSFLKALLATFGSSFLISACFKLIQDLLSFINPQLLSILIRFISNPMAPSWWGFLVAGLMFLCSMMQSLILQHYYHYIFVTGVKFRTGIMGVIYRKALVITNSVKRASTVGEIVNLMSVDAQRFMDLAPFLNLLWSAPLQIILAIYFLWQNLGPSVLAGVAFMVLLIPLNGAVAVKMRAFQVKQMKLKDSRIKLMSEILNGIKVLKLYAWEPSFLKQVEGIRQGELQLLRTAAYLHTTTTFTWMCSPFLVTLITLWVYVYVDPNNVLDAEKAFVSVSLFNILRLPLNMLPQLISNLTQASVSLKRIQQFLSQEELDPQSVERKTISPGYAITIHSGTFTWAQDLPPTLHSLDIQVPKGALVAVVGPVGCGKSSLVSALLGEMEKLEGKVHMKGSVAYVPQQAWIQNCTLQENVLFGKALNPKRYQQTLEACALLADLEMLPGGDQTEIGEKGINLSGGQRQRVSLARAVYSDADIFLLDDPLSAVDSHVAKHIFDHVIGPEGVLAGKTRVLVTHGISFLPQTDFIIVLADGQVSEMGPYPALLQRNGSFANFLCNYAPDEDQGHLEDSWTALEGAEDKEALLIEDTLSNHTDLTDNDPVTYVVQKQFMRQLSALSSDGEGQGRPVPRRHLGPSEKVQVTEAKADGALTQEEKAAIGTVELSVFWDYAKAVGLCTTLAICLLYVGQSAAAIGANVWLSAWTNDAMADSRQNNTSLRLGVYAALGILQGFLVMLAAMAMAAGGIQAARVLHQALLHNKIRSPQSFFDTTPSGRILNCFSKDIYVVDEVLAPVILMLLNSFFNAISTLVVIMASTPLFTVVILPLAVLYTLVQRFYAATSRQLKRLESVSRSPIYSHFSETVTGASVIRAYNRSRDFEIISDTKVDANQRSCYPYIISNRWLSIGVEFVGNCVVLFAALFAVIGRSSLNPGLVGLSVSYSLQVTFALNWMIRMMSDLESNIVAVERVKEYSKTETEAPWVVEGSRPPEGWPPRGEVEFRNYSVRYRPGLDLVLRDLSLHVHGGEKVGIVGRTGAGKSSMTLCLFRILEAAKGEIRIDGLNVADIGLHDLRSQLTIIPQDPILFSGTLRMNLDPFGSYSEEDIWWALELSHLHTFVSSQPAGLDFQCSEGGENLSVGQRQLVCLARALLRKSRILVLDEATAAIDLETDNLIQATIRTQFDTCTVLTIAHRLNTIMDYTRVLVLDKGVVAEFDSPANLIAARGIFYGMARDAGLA
row,"E217G uptake, % of control at 100 μM [%]",SMILES
1,37.4,NS(=O)(=O)c1cc2c(cc1Cl)NC=NS2(=O)=O [Chlorothiazide]
2,69.5,CNC(=O)c1cc(Oc2ccc(NC(=O)Nc3ccc(Cl)c(C(F)(F)F)c3)c(F)c2)ccn1 [regorafenib]
3,45.8,CCOC(=O)C1=C(C)NC(C)=C(C(=O)OC)C1c1cccc(Cl)c1Cl (stereo not drawn) [felodipine]
4,52.1,OCCN(CCO)c1nc(N2CCCCC2)c2nc(N(CCO)CCO)nc(N3CCCCC3)c2n1 [dipyridamole]
5,55.0,COC(=O)N[C@H](C(=O)N[C@@H](Cc1ccccc1)[C@@H](O)CN(Cc1ccc(-c2ccccn2)cc1)NC(=O)[C@@H](NC(=O)OC)C(C)(C)C)C(C)(C)C [atazanavir]
6,63.5,CC[C@H](C)C(=O)O[C@H]1C[C@@H](C)C=C2C=C[C@H](C)[C@H](CC[C@@H]3C[C@@H](O)CC(=O)O3)[C@H]21 [lovastatin]

# Target: T1, MRP3 (ABCC3)
# Assay: as above
# Assay type: biochemical
# Conditions: not given
row,IC50 [µM],SMILES
1,3.33 ± 0.41,Cc1ccc(C(=O)Nc2ccc(S(=O)(=O)O)c3cc(S(=O)(=O)O)cc(S(=O)(=O)O)c23)cc1NC(=O)c1cccc(NC(=O)Nc2cccc(C(=O)Nc3cc(C(=O)Nc4ccc(S(=O)(=O)O)c5cc(S(=O)(=O)O)cc(S(=O)(=O)O)c45)ccc3C)c2)c1 [suramin]
2,47.4 ± 4.41,CCCCc1oc2ccc(NS(C)(=O)=O)cc2c1C(=O)c1ccc(OCCCN(CCCC)CCCC)cc1 [dronedarone]

# Same assay, conditions: 10 μM E217G, ATP, 5 min, 37 °C; 0.1-100 μM inhibitor
row,IC50 [µM],SMILES
1,1.83 ± 0.46,CCc1c(Cl)c(O)c(Cl)c(O)c1C(=O)O[C@H]1[C@H](O)[C@H](OC)[C@H](OC/C2=C\C=C\C[C@H](O)/C(C)=C/[C@H](CC)[C@@H](O[C@@H]3OC(C)(C)[C@@H](OC(=O)C(C)C)[C@H](O)[C@@H]3O)/C(C)=C/C(C)=C/C[C@@H]([C@@H](C)O)OC2=O)O[C@@H]1C [fidaxomicin]
